Measured values published in article PMC5712521, “Dendrogenin A drives LXR to trigger lethal autophagy in cancers” (Nature Communications, 2017).

Assays:
[1] = test system: RXRγ, FXR, SXR, PPARα, PPARγ, RARα, AHR, VDR, GR, PR, AR, ERα, ERβ; experiment: Gene reporter luciferase assays on other nuclear receptors; format: cell-based, human; conditions: 2.5 µM DDA, 8 h, with or without cognate agonist
Source text: HEK293T were used for luciferase assays. Cells were transfected using the PolyEthylenImine (PEI) method with human retinoid-X receptor (RXRγ) and human liver-X-receptors (LXRα or LXRβ) with LXRE-Luc; RXRγ and human farnesoid X receptor (FXR) with EcRE-Luc; RXRγ and human steroid and xenobiotic X receptor (SXR) with DR4-Luc; RXRγ and human peroxisome proliferator activated receptors (PPARα, or PPARγ) with PPRE-Luc; RXRγ and human retinoic acid receptor (RARα) with DR1-Luc; human AHR and human ARNT with a DRE-Luc; human vitamin D receptor (VDR) with VDRE-Luc. Cells were transfected with plasmids encoding human glucocorticoid receptor (GR), progesterone receptor (PR), or androgen receptor (AR) with MMTV-Luc; or estrogen receptors (ERα and ERβ) with an ERE-Luc. The day after transfection with the luciferase reporter gene construct, cells were seeded in 12-well plates (50,000 cells per well). […] Luciferase activity was measured using the luciferase assay reagent (Promega), according to the manufacturer’s instructions. Protein concentrations were measured using the Bradford method to normalize luciferase activities. For each condition, luciferase activity was calculated from the data of three independent wells. […]

B16F10 cells = experiment: Cell cycle analysis by flow cytometry; format: cell-based, mouse; conditions: 5 µM DDA, 48 h
Description: (§1) Control and DDA-treated cells were fixed in 70% ethanol and then washed with PBS. Cells were incubated with 100 μg/ml RNase A for 30 min at 37 °C, permeabilized with 0.25% Tween-20, and stained with 50 μg/ml propidium iodide (PI) for 30 min at 37 °C. The DNA content of stained cells was analyzed by flow cytometry. The fraction of cells in sub-G1 phase was calculated using flowJo software (Ashland, Oregon). Data were obtained from 10^5 viable cells. […]

SKMEL-28 cells = experiment: Cell cycle analysis by flow cytometry; format: cell-based, human; conditions: 5 µM DDA, 48 h
Description: as §1

HL60 cells = HL60 cells orthotopically engrafted (i.v.) into NSG mice; format: in vivo; conditions: for reduction of the number of HL60 cells in bone marrow and brain / reduction of HL60 cell viability in bone marrow and brain: 16 days; for reduction of HL60 cell viability in bone marrow and brain: Annexin-V
Description: The engraftment of human primary AML cells was performed on NSG mice. Briefly, human primary AML cells, HL60 cells or normal CD34+ cells were resuspended in PBS, and 0.8 × 10^6 to 2 × 10^6 viable trypan blue-negative cells were injected intravenously into NSG mice that had been previously irradiated for 24 h with 2.25 Gy. […] The viability of AML cells was established by quantifying the percentage of hCD45+CD33+Annexin-V- cells.

SMILES: CC(C)CCC[C@@H](C)[C@H]1CC[C@H]2[C@@H]3C[C@@H](NCCc4cnc[nH]4)[C@@]4(O)C[C@@H](O)CC[C@]4(C)[C@H]3CC[C@]12C [DDA, Dendrogenin A]
- agonistic or antagonistic transcriptional activity on other NRs [1]: did not show any agonistic or antagonistic transcriptional activity
- Cell cycle distribution: G0/G1 (B16F10 cells): 54.50%
- Cell cycle distribution: G2/M (B16F10 cells): 9.83%
- Cell cycle distribution: S (B16F10 cells): 9.68%
- Cell cycle distribution: Sub G0/G1 (B16F10 cells): 25.03%
- Cell cycle distribution: G0/G1 (SKMEL-28 cells): 51.80%
- Cell cycle distribution: G2/M (SKMEL-28 cells): 4.93%
- Cell cycle distribution: S (SKMEL-28 cells): 8.99%
- Cell cycle distribution: Sub G0/G1 (SKMEL-28 cells): 34.28%
- reduction of the number of HL60 cells in bone marrow and brain (HL60 cells; 20 mg/kg/day i.p.): 60.5 ± 11%
- reduction of HL60 cell viability in bone marrow and brain (HL60 cells; 20 mg/kg/day i.p.): 21.9 ± 6%
- reduction of the number of HL60 cells in bone marrow and brain (HL60 cells; 40 mg/kg/day p.o.): 47 ± 9%
- reduction of HL60 cell viability in bone marrow and brain (HL60 cells; 40 mg/kg/day p.o.): 17.3 ± 5%
- overall survival of HL60-engrafted mice (HL60 cells; 40 mg/kg/day p.o., after disease establishment): significantly improved the survival
